# Experiments:
# [1] = test system: panel of cancer and normal cells; experiment: Quantification of autophagy GFP-LC3 puncta in cell panel; assay type: cell-based; conditions: fluorescent microscopy
# Description: (§1) GFP-LC3 puncta formation was quantified as previously described^15. In brief, cells grown on coverslips in a 6-well plate were treated with or without 10 μM of N-desmethyldauricine for 4 hours, the cells were then fixed in 4% paraformaldehyde for 20 minutes at room temperature and then rinsed with PBS. Slides were mounted with FluorSave™ mounting media (Calbiochem, San Diego, Calif.) and examined by fluorescence microscopy. The number of GFP-positive cells with GFP-LC3 puncta formation was examined under the Nikon ECLIPSE 80i microscope. Representative images were captured with CCD digital camera Spot RT3™ (Diagnostic Instruments, Inc., Melville, N.Y.). To quantify for autophagy, the percentage of cells with punctate GFP-LC3 fluorescence was calculated by counting the number of the cells with punctate GFP-LC3 fluorescence in GFP-positive cells. A minimum of 150 cells from 3 randomly selected fields was scored.
# LC3 = experiment: Western blot of autophagic marker LC3 conversion and autophagic flux; assay type: cell-based, human; conditions: HeLa
# Description: (§2) After N-desmethyldauricine treatments, HeLa cancer cells were harvested and lysed in RIPA buffer (Cell Signaling Technologies Inc. (Beverly, Mass.). The cell lysates were then resolved by SDS-PAGE. After electrophoresis, the proteins from SDS-PAGE were transferred to nitrocellulose membrane which was then blocked with 5% non-fat dried milk for 60 minutes. The membrane was then incubated with LC3 primary antibodies (1:1000) in TBST overnight at 4° C. After that, the membrane was further incubated with HRP-conjugated secondary antibodies for 60 minutes. Finally, protein bands were visualized by using the ECL Western Blotting Detection Reagents (Invitrogen, Paisley, Scotland, UK).
# as §2, with “treatments in the presence or absence of lysosomal inhibitor 10·M of E64d/Pepstatin A,” for “treatments,”, “Inc., Beverly,” for “Inc. (Beverly,”, “Finally, protein bands were visualized by using the ECL Western Blotting Detection Reagents (Invitrogen, Paisley, Scotland, UK).” left out
# [2] = test system: wild type Atg7 cells (Atg7+/+) mouse embryonic fibroblasts; experiment: GFP-LC3 puncta in Atg7 wild-type MEFs; assay type: cell-based
# Description: as §1, with “brief, both Atg7 wild-type and deficient mouse embryonic fibroblasts (MEFs)” for “brief, cells”, “with indicated concentrations” for “with or without 10 μM”, “of N-desmethyldauricine. Both Atg7 wild-type and deficient mouse embryonic fibroblasts” for “of N-desmethyldauricine for 4 hours, the cells”
# HeLa cells = experiment: Calcium detection by flow cytometry (Fluo-3); assay type: cell-based, human; conditions: 5 μM/10 μM, 1 h, 2 h, 4 h
# Description: Changes in intracellular free calcium were measured by a fluorescent dye, Fluo-3, as described previously^18. Briefly, HeLa cells were washed twice with MEM medium after N-desmethyldauricine (LP-4) treatment (5 μM/10 μM) for various times (1 h, 2 h, 4 h). Then cell suspensions were incubated with 5 μM Fluo-3 at 37° C. for 30 min. Then the cells were washed twice with HBSS. After re-suspended cell samples were subjected to FACS analysis, at least 10,000 events were analyzed.
# SERCA1A = molecular target: T1, SERCA1A (Oryctolagus cuniculus, UniProt P04191); experiment: Measurement of SERCA Ca2+ ATPase activity; assay type: biochemical; conditions: rabbit skeletal muscle SR, dose-dependent
# T1 construct: Purified Ca^2+ ATPase (SERCA1A) is prepared from female rabbit hind leg muscle; from tissue; host or cells: female rabbit hind leg skeletal muscle (sarcoplasmic reticulum)
# Description: Purified Ca^2+ ATPase (SERCA1A) is prepared from female rabbit hind leg muscle^24. ATPase activity is determined using the enzyme-coupled method utilizing pyruvate kinase and lactate dehydrogenase as previously described in Michelangeli et al. (1990)^25. All SERCA inhibition data is fitted to the allosteric dose versus effect equation using Fig P (Biosoft):
# Activity=minimum activity+(maximum activity−minimum activity)/(1+([I]IC50)P).
# In molecular docking, 5000 poses were generated during the initial phase of the docking calculation, out of which the best 1000 poses were chosen for energy minimization by 1000 steps of conjugate gradient minimizations. The performance of molecular docking was evaluated by comparing the docked pose with the experimental structure for N-desmethyldauricine in the X-ray co-crystallized complex. TG in the X-ray co-crystallized complexes was re-docked into the binding sites and the RMSD for re-docked result of TG is 1.78 Å. […] To ascertain whether the SERCA pump is suppressed by N-desmethyldauricine, SERCA inhibitory effect is quantified using purified rabbit skeletal muscle sarcoplasmic reticulum (SR) membranes to measure the expression of the SERCA1A isoform by the SR membrances^26. Most of the existing SERCA inhibitors show similar inhibitory effect in SERCA isoform ^15,16. […]
# T1 sequence (P04191 1-994 isoform P04191-2): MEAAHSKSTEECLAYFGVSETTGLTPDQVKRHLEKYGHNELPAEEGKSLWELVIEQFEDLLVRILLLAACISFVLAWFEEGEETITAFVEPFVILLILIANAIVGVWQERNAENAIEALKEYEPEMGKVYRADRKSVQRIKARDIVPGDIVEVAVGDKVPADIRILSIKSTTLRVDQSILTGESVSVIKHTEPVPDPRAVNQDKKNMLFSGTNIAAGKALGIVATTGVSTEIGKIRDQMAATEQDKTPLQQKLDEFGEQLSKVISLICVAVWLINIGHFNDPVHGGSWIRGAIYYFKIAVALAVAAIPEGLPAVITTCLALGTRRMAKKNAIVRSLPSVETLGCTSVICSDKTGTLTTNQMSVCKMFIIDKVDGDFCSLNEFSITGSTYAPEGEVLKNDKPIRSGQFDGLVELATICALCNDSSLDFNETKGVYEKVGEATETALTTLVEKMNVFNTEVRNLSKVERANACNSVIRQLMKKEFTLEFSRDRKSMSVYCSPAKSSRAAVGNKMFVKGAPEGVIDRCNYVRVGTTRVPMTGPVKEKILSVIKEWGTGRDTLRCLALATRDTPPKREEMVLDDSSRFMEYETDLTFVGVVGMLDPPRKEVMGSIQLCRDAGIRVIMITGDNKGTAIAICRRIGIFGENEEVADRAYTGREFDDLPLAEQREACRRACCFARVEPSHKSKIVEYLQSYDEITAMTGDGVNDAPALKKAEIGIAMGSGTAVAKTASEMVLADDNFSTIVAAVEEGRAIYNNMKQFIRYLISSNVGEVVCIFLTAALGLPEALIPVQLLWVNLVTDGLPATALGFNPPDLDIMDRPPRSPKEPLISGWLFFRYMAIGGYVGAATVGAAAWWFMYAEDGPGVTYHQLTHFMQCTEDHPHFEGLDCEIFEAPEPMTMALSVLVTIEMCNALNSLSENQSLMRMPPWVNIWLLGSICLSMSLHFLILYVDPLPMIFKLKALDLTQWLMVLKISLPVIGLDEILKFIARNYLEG
smiles,measurement,setting,value
COc1cc2c(cc1OC)[C@@H](Cc1ccc(Oc3cc(C[C@H]4NCCc5cc(OC)c(OC)cc54)ccc3O)cc1)N(C)CC2 [N-desmethyldauricine],GFP-LC3 puncta formation,[1],increased
same,autophagic marker LC3-II conversion,LC3; western blot,induced
same,LC3-II conversion in the presence of lysosomal inhibitor,LC3; with E64d/Pepstatin A,further enhance
same,GFP-LC3 puncta formation,[2],induce GFP-LC3 puncta formation
same,cytosolic calcium level,HeLa cells,increase
same,Ca2+ ATPase activity of SERCA,SERCA1A,inhibited
